From ChEMBL document CHEMBL1909046, “DrugMatrix in vitro pharmacology data”

What was measured:
[1] = target: D(1A) dopamine receptor (Homo sapiens, UniProt P21728); assay: DRUGMATRIX: Dopamine D1 radioligand binding (ligand: [3H] SCH-23390); assay type: cell membranes, Membrane; conditions: cho; Not Active = under 50% inhibition at 10 µM
[2] = target: T1, Glucocorticoid receptor (Homo sapiens, UniProt P04150); conditions: hela s3; also: in other assays of this panel Not Active means under 50% inhibition at 10 µM
T1 sequence (P04150 whole entry): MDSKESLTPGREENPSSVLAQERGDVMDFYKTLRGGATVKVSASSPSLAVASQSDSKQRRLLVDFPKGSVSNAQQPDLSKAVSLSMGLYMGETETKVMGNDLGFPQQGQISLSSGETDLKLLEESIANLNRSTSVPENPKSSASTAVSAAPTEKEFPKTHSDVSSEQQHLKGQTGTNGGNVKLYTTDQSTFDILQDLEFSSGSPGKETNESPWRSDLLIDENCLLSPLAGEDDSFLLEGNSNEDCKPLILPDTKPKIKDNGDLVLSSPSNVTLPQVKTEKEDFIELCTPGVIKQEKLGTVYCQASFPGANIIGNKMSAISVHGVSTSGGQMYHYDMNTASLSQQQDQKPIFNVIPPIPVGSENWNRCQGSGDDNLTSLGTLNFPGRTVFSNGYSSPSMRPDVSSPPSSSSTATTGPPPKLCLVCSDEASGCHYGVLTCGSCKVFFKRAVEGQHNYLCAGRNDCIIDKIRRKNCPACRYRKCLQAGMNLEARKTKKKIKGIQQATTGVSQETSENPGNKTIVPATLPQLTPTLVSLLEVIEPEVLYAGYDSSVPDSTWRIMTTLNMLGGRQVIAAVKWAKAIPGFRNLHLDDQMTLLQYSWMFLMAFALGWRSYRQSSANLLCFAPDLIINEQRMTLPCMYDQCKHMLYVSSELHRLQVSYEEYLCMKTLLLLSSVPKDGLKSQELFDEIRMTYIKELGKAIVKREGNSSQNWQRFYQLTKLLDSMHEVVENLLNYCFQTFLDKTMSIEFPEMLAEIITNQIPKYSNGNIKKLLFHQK

[3] = target: D(3) dopamine receptor (Homo sapiens, UniProt P35462); assay: DRUGMATRIX: Dopamine D3 radioligand binding (ligand: [3H] Spiperone); assay type: cell membranes, CHO, Membrane; conditions: cho
[4] = target: Sodium-dependent dopamine transporter (Homo sapiens, UniProt Q01959); assay: DRUGMATRIX: Dopamine Transporter radioligand binding (ligand: [125I] RTI-55); assay type: cell membranes, CHO-K1, Membrane; conditions: cho-k1; Not Active = under 50% inhibition at 10 µM
[5] = target: T2, Thromboxane-A synthase (Homo sapiens, UniProt P24557); assay: biochemical; assay type: tissue-based, Platelet; conditions: platelet;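 also: enzyme inhibition assay with PGH2 supplied as substrate; in other assays of this panel Not Active means under 50% inhibition at 10 µM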
T2 sequence (P24557 whole entry): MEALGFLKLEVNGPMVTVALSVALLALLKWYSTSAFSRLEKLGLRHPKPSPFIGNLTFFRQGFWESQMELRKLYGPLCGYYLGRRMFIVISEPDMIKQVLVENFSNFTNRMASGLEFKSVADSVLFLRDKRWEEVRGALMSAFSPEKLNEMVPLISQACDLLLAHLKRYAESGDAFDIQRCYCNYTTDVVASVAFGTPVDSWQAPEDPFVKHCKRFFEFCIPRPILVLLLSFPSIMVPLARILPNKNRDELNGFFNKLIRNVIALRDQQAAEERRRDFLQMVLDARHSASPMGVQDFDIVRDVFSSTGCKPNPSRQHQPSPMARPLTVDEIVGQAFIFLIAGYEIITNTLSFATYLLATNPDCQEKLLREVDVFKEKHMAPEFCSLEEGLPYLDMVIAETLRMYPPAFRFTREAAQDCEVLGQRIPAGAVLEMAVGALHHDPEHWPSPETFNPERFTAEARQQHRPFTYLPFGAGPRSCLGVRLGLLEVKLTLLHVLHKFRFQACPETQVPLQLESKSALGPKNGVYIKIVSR

[6] = target: Mitogen-activated protein kinase 1 (Homo sapiens, UniProt P28482); assay: DRUGMATRIX: Protein Serine/Threonine Kinase, ERK2 enzyme inhibition (substrate: Myelin Basic Protein); set-up: species or system Escherichia coli; conditions: Not Active = under 50% inhibition at 10 µM
[7] = target: T3, Leukotriene C4 synthase (Cavia porcellus, UniProt A6XA80); assay type: tissue-based, Lung;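 also: enzyme inhibition assay of leukotriene C4 synthase, using LTA4 as the substrate; in other assays of this panel Not Active means under 50% inhibition at 10 µM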
T3 sequence (A6XA80 whole entry): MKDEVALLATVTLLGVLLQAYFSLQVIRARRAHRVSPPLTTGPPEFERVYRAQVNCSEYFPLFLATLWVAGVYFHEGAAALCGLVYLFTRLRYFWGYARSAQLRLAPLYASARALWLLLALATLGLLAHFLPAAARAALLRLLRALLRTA

Chain of Mitogen-activated protein kinase 1 (P28482 whole entry): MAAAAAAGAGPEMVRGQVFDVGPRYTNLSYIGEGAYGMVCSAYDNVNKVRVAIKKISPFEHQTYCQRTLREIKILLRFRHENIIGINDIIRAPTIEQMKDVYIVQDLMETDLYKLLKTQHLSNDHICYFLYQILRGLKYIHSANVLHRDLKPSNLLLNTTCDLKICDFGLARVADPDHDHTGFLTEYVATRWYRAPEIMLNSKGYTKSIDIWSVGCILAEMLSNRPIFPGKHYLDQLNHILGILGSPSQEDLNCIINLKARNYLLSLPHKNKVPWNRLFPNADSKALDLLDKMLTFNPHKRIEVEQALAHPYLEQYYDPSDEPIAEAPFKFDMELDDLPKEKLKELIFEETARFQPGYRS
Chain of Sodium-dependent dopamine transporter (Q01959 whole entry): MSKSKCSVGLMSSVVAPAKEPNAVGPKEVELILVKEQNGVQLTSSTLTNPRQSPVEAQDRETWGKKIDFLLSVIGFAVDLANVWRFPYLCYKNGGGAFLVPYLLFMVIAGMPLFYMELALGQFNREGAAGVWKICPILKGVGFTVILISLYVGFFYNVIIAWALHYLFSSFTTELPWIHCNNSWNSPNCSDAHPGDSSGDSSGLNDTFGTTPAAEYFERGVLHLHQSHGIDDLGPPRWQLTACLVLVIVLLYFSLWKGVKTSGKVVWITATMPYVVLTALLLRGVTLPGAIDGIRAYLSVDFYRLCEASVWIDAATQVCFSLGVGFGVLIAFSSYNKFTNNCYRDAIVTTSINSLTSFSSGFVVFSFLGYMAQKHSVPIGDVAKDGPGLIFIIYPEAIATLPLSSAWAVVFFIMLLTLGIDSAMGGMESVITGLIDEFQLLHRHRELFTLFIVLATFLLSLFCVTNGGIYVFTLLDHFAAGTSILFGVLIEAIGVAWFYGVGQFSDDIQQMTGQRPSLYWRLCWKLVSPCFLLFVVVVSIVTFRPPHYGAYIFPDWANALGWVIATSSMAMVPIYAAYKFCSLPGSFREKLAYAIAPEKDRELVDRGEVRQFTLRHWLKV
Chain of D(1A) dopamine receptor (P21728 whole entry): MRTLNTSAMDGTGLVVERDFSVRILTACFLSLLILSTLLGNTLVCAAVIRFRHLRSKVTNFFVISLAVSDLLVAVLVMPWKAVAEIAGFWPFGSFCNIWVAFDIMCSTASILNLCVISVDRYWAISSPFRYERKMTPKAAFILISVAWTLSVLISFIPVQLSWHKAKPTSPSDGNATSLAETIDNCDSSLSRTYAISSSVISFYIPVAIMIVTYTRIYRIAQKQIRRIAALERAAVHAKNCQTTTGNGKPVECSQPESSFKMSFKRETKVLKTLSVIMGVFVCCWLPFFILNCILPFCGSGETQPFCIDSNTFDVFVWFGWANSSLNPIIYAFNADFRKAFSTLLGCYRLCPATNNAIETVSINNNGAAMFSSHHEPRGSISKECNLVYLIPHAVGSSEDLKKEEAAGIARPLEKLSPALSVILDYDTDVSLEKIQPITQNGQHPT
Chain of D(3) dopamine receptor (P35462 whole entry): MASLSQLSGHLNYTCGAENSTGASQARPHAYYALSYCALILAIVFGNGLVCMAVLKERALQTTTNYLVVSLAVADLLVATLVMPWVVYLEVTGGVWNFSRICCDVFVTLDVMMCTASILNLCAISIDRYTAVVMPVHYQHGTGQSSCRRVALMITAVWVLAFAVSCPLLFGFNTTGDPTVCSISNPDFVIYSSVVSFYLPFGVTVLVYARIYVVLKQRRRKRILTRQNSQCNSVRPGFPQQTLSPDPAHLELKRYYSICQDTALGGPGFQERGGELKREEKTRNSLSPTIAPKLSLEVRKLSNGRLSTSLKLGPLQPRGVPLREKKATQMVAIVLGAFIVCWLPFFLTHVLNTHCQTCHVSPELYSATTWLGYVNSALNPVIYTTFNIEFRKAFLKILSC

CCCC(CCC)C(=O)O [VALPROIC ACID]
Not Active: IC50 [1] | IC50 [2] | IC50 [3] | IC50 [4] | IC50 [5] | IC50 [6] | IC50 [7]

CCC1=C[C@@H]2CN(C1)Cc1c([nH]c3ccccc13)[C@@](C(=O)OC)(c1cc3c(cc1OC)N(C)[C@H]1[C@@](O)(C(=O)OC)[C@H](OC(C)=O)[C@]4(CC)C=CCN5CC[C@]31[C@@H]54)C2 [VINORELBINE]
Not Active: IC50 [1] | IC50 [2] | IC50 [3] | IC50 [4] | IC50 [5] | IC50 [6] | IC50 [7]

CADMIUM DICHLORIDE
Not Active: IC50 [1] | Ki [1] | IC50 [2] | Ki [2] | IC50 [3] | Ki [3] | IC50 [4] | Ki [4] | IC50 [5] | Ki [5] | IC50 [6] | Ki [6] | IC50 [7] | Ki [7]
